Data: publication PMC5684143, “New melanocortin-like peptide of E. coli can suppress inflammation via the mammalian melanocortin-1 receptor (MC1R): possible endocrine-like function for microbes of the gut” (NPJ Biofilms and Microbiomes, 2017)

Key:
[1] = test system: RAW 264.7 cells; experiment: HMGB1-induced TNF release by RAW 264.7 macrophage-like cells; format: cell-based, murine
Method: Fig. 1 MECO-1 attenuates HMGB1-induced TNF release by macrophages in culture. Murine macrophage-like RAW 264.7 cells were incubated for up to 24 h with purified recombinant HMGB1 (0.1 mg/ml) in the absence or presence of MECO-1 (Panel a), or alpha-MSH (Panel b), at 10^−10 and 10^−12 M. The levels of TNF in the culture medium were determined by ELISA and expressed as mean ± SEM of two independent experiments (in duplicate). *p < 0.05, **p < 0.01 vs. control (“HMGB1 alone”). […] In panels c and d, cells were incubated with HMGB1 for 6 h with or without MECO-1 or alpha-MSH (10^−16–10^−6 M). Data represent mean ± SEM of three independent experiments performed in duplicate. With 10^−14 M peptide, results were significant at *p < 0.05, and at 10^−12 M or more were typically **p < 0.01. In our experiments, at concentrations of MECO-1, alpha-MSH, and ACTH of around 1 nM and higher, dose response curves often reverse direction, i.e., turn upward. The reversal is more clearly seen in Fig. 2. The mechanism of the reversal is not known. (Desensitization, receptor inactivation, receptor internalization, and dissociation of dimeric receptors are all plausible candidates.) As a result, the shape of the lower part of the curve and the actual inflection point may vary from experiment to experiment. This feature may be missed when results of several experiments are combined
Murine macrophage-like RAW 264.7 cells were obtained from American Type Culture Collection, and were grown in Dulbecco’s Modified Eagle’s Medium (DMEM, Life Technologies) containing 10% (vol/vol) heat-inactivated fetal bovine serum (FBS, Hyclone Lab. Inc.), penicillin 100 U/ml, and streptomycin 100 μg/ml (BioWhittaker Inc.). Cells were suspended in medium and incubated in 24-well or 48-well tissue-culture plates overnight in a humidified incubator (37 °C, 5% CO2). Growth medium was removed and replaced by Opti-MEM I serum-free medium (Life Technologies) overnight. In the experiments, cell monolayers were stimulated with HMGB1 or LPS, in the absence or presence of MECO-1 or alpha-MSH; cell-free supernatants were assayed for TNF by ELISA or HMGB1 by western blotting.
Concentrations of TNF and IL-6 were each determined using a commercially available enzyme-linked immunosorbent assay (ELISA) kit (R&D System Inc.) as previously described.[34] The levels of TNF or IL-6 were calculated with reference to standard curves.
Fig. 3 Antibody to MC1R blocks suppressant effect of MECO-1 and alpha-MSH. Murine macrophage-like RAW 264.7 cells were pretreated with specific antibodies (“anti-MC1R Ab”) against melanocortin-1 receptor (MC1R) for 10 min prior to addition of HMGB1 in the absence or presence of MECO-1 or alpha-MSH at 10^−12 M. At 6 h, the TNF content of the cell-free medium was determined by ELISA, and expressed as mean ± SEM of two independent experiments performed in duplicate. ACTH at the same concentration gave results that were indistinguishable from those of alpha-MSH and MECO-1 (data not shown)

[2] = test system: NF-kappa B; experiment: NF-kappa-B activity (electrophoretic mobility shift assay) in LPS-treated RAW 264.7 cells; format: cell-based, murine; settings: LPS 100 ng/ml; peptide 10^-8 M and 10^-6 M; 2 hours; EMSA; two separate experiments
Method: Nuclear extracts were prepared from 1 × 10^6 treated cells using the NE-PER nuclear extraction reagents (Pierce). DNA was biotin labeled using the biotin 3ʹ-end-labeling kit (Pierce) in a 50-µl reaction buffer and 5 pmol of double-stranded NF-kappa-B oligonucleotide (5ʹ-[…]-3ʹ and 3ʹ-[…]-5ʹ, Promega). Electrophoretic mobility shift assays for NF-κB was performed using the Lightshift Chemiluminescent Electrophoretic Mobility Shift Assay kit (Pierce) following the manufacturer’s protocol. Densitometric values for the active transcription factors were obtained using GS-800 Calibrated Densitometer Software (Biorad).[36]
RAW 264.7 cells ([…]) were incubated with LPS (100 ng/ml) with or without MECO-1 or alpha-MSH at 10^-8 M and 10^-6 M for 2 hours. Nuclear extracts were mixed with biotin-labeled oligonucleotides containing binding sites for NF-kappa B and then run on a gel, 4-20% Ready gel TBE, in an electrophoretic mobility shift assay. Data represent mean +/- SEM of two separate experiments.

For “alpha-melanocyte-stimulating hormone [alpha-MSH]”, the “peptide concentration at which significant effects on HMGB1-induced TNF release were noted” value ([1]; 6 h incubation, dose range 10^−16–10^−6 M, three independent experiments in duplicate, p < 0.05) was 10^−14 M, the “inhibition of HMGB-1-induced TNF release” value ([1]; Fig. 2d dose response, RAW 264.7 cells) was “up to 80%” and the “TNF accumulation with HMGB1 on co-incubation with peptide” value ([1]; peptide 10^−12–10^−8 M) was “substantially reduced”. The “HMGB-1-stimulated TNF-alpha release” value ([1]; peptide at 1 pM and 100 pM, 4 to 16 h after HMGB-1, HMGB1 0.1 mg/ml, ELISA, two independent experiments in duplicate) was “blunted substantially” and the “rise in NF-kB activity” value [2] was “active in attenuating”.
